Data as given in patent US8686178B2, “Derivative of 18β-glycyrrhetinic acid apt to suppress cancer cells” (Kaohsiung Medical University, priority 2011, dated 2014).

How the values were obtained:
NTUB1 cells [1] = experiment: Trial (F): mitochondrial membrane potential (JC-1) by flow cytometry; assay type: cell-based, human; conditions: 10 μM, 30 minutes, JC-1, NTUB1
Procedure: In trial (F), mitochondrial membrane potential (MMP) in NTUB1 cells is measured according to a journal article published by Martin et al., at 2009 in PloS one, in which a dysfunction of the mitochondria caused by ROS induced MPP decrease is supposed.
Referring to TABLE 6, the NTUB1 cells at a density of 3×10^5 cells/ml are prepared and assigned into 5 groups, including F1 to F5, to incubate in 10 μM carbonyl cyanide 3-chlorophenylhydrazone (CCCP), and 10, 25 and 50 μM of 25 respectively, for 30 minutes, followed by adding 1 μM of 5,5′,6,6′-tetrachloro-1,1′,3,3′-tetraethylbenzimidaolylcarbocyanine iodide (JC-1) (Molecular Probes, Eugene, Oreg., USA) in each group. Then, the NTUB1 cells in each group are washed with PBS buffer for 3 times, collected in PBS/2% BSA, washed twice by centrifugating at 800 g, 5 minutes and resuspending in 0.3 mL PBS/2% BSA, and finally analyzed by a FACSCalibur flow cytometer (Becton Dickinson), with the FACSCalibur flow cytometer determining and calculating a ratio of JC-1 aggregates (red fluorescence) to JC-1 monomers (green fluorescence) based on levels of MMP in each group.

[2] = test system: human bladder cancer cell line NTUB1; experiment: Trial (A): cytotoxic effect, IC50 by median-effect analysis; assay type: cell-based; conditions: NTUB1 cells; for IC50: mean ± SD; for cytotoxic effect against cancer cell: with reference to TABLE 2
From the text: For the sake of proving therapeutic effects of the derivatives of 18β-glycyrrhetinic acid of the present invention, including 10, 11, 13-17 and 21-25, in treating of cancer, human bladder cancer cell line NTUB1, human prostate cancer cell line PC3 cataloged as CRL-1435 (reference to J. Formosan Med. Assoc. 1992; 91:608-13), and immortalized normal human urothelial cells SV-HUC1 cataloged as CRL-9520 are purchased from American Type Culture Collection (ATCC; Rockville, USA) and maintained in a culturing medium respectively till at a preferable density to carry out a serial of trials (comprising trial A to G) for evaluating cytotoxicities of the derivatives of 18β-glycyrrhetinic acid against cancer cells, and mechanisms thereof.
In the present invention, the NTUB1 and the PC3 is but not limit to be maintained in RPMI 1640 medium supplemented 10% fetal bovine serum (FBS), 100 unit/mL penicillin-G, 100 μg/mL streptomycin, and 2 mM L-glutamine, yet the SV-HUC1 is maintained in F12 medium supplemented with 10% fetal bovine serum (FBS), 100 unit/mL penicillin-G, 100 μg/mL streptomycin, and 2 mM L-glutamine, culturing at 37° C. in a humidified atmosphere containing 5% CO2 till at a density of 70% per well, followed by repeatedly suspending cells in each well with an ethylene diamine tetra-acetic acid buffer (EDTA buffer; Merck) and counting cell numbers.
In the present invention, the IC50 values of each group are presented as mean±standard deviation (SD).

NTUB1 cells [3] = experiment: Trial (C): synergy with cisplatin, MTT assay; assay type: cell-based, human; conditions: NTUB1, 72 hours; for cytotoxic effect applied individually (FIGS. 7, 8): single agent; for synergy with cisplatin (FIGS. 7, 8): 1-50 μM compound with 5/10 μM cisplatin
Procedure: Oncol: Semin. Orig. Invest. by maintaining the NTUB1 cells in various condition of medium (with reference to TABLE 3) at 37° C. for 72 hours, and determining cytotoxicities of each medium via MTT assay. In the trial (C), the viability rates of NTUB1 cells […] are also determined by the absorbance spectrometry at 540 nm with a MRX (DYNEXCO) microplate according to trial (B).

NTUB1 cells [4] = experiment: Trial (E): cell cycle progression by flow cytometry (propidium iodide); assay type: cell-based, human; set-up: Sub-G1 / G1: unit not given here; conditions: 50 μM, 24 hours, NTUB1
Procedure: In order to determine a relationship between the derivatives of 18β-glycyrrhetinic acid of the present invention and cell cycle arrest, trial (E) is carried out by analyzing cell cycle progression by flow cytometry. […] After that, cell cycle progression of each group is determined respectively by incubating with 50 μg/mL propidium iodide (Sigma, Co) and 50 μg/mL RNase A (Sigma, Co) in PBS at room temperature for 30 min, and analyzing by FACScan flow cytometer and Cell Quest sofeware.

| SMILES | IC50 [2] | also measured |
| --- | --- | --- |
| N#CC(C#N)=NNc1cccc(Cl)c1 [CCCP, carbonyl cyanide 3-chlorophenylhydrazone, reference compound] | – | R1 (%) (NTUB1 cells [1]): 52.06% |
| CC1(C)[C@@H](O)CC[C@]2(C)[C@H]3C(=O)C=C4[C@@H]5C[C@@](C)(C(=O)O)CC[C@]5(C)CC[C@@]4(C)[C@]3(C)CC[C@@H]12 [Compound 1, 18β-glycyrrhetinic acid] | 27.3 ± 5.17 µM | – |
| CC1(C(=O)O)CCC2(C)CCC3(C)C(=CC(=O)C4C5(C)CCC(=O)C(C)(C)C5CCC43C)C2C1 (stereo not drawn) [Compound 2] | 18.6 ± 1.64 µM | – |
| COC(=O)C1(C)CCC2(C)CCC3(C)C(=CC(=O)C4C5(C)CCC(=O)C(C)(C)C5CCC43C)C2C1 (stereo not drawn) [Compound 3] | 56.5 ± 14.3 µM | – |
| CC1(C(=O)OCc2ccccc2)CCC2(C)CCC3(C)C(=CC(=O)C4C5(C)CCC(=O)C(C)(C)C5CCC43C)C2C1 (stereo not drawn) [Compound 4] | 20.2 ± 5.1 µM | – |
| CC1(C(=O)O)CCC2(C)CCC3(C)C(=CC(=O)C4C5(C)CCC(=O)OC(C)(C)C5CCC43C)C2C1 (stereo not drawn) [Compound 5] | 73.5 ± 35.1 µM | – |
| COC(=O)C1(C)CCC2(C)CCC3(C)C(=CC(=O)C4C5(C)CCC(=O)OC(C)(C)C5CCC43C)C2C1 (stereo not drawn) [Compound 6] | 24.3 ± 3.98 µM | – |
| CC1(C(=O)OCc2ccccc2)CCC2(C)CCC3(C)C(=CC(=O)C4C5(C)CCC(=O)OC(C)(C)C5CCC43C)C2C1 (stereo not drawn) [Compound 7] | 57.6 ± 8.8 µM | – |
| C=C(C)[C@@H]1CC[C@]2(C)[C@H](C(=O)C=C3[C@@H]4C[C@@](C)(C(=O)OC)CC[C@]4(C)CC[C@]32C)[C@@]1(C)CCC(=O)O [Compound 8] | 20.7 ± 4.97 µM | – |
| C=C(C)[C@@H]1CC[C@]2(C)[C@H](C(=O)C=C3[C@@H]4C[C@@](C)(C(=O)OCc5ccccc5)CC[C@]4(C)CC[C@]32C)[C@@]1(C)CCC(=O)O [Compound 9] | 2.34 ± 0.28 µM | cytotoxic effect against cancer cell [2]: significantly suppress the growth of cancer cells with a lower concentrate |
| C=C(C)C1CCC2(C)C(C(=O)C=C3C4CC(C)(C(=O)OC)CCC4(C)CCC32C)C1(C)CCC(=O)OC(C)C (stereo not drawn) [Compound 10, 3,4-seco-11-oxo-18β-olean-4(23),12-dien-3,30-dioic acid 3-isopropyl 30-methyl, ester] | 25.3 ± 2.28 µM | – |
| C=C(C)[C@@H]1CC[C@]2(C)[C@H](C(=O)C=C3[C@@H]4C[C@@](C)(C(=O)OC)CC[C@]4(C)CC[C@]32C)[C@@]1(C)CCC(=O)NC(C)C [Compound 11, 3-isopropyl carbamoyl-11-oxo-18β-3,4-seco-olean-4(23),12-dien 30-methyl ester] | 31.4 ± 0.55 µM | – |
| C=C(C)[C@@H]1CC[C@]2(C)[C@H](C(=O)C=C3[C@@H]4C[C@@](C)(C(=O)OCc5ccccc5)CC[C@]4(C)CC[C@]32C)[C@@]1(C)CCC(=O)OC [Compound 12, 3,4-seco-11-oxo-18β-olean-4(23), 12-dien-3,30-dioic acid 3-methyl-30-benzyl ester] | 9.41 ± 2.72 µM | cytotoxic effect against cancer cell [2]: significantly suppress the growth of cancer cells with a lower concentrate; cytotoxic effect applied individually (FIGS. 7, 8) (NTUB1 cells [3]): cytotoxic effects against to cancer cells; synergy with cisplatin (FIGS. 7, 8) (NTUB1 cells [3]): dramatic synergy |
| C=C(C)C1CCC2(C)C(C(=O)C=C3C4CC(C)(C(=O)OCc5ccccc5)CCC4(C)CCC32C)C1(C)CCC(=O)OCC (stereo not drawn) [Compound 13, 3,4-seco-11-oxo-18β-olean-4(23),12-dien-3,30-dioic acid 3-ethyl,30-benzyl ester] | 27.8 ± 6.48 µM | – |
| C=C(C)C1CCC2(C)C(C(=O)C=C3C4CC(C)(C(=O)OCc5ccccc5)CCC4(C)CCC32C)C1(C)CCC(=O)OC(C)C (stereo not drawn) [Compound 14, 3,4-seco-11-oxo-18β-olean-4(23),12-dien-3,30. dioic acid 3-isopropyl-30-benzyl ester] | 18.2 ± 1.58 µM | – |
| C=C(C)[C@@H]1CC[C@]2(C)[C@H](C(=O)C=C3[C@@H]4C[C@@](C)(C(=O)OCc5ccccc5)CC[C@]4(C)CC[C@]32C)[C@@]1(C)CCC(=O)NCC [Compound 15, 3-ethyl carbamoyl-11-oxo-18β-3,4-seco-olean-4(23),12-dien-30-benzyl ester] | 42.7 ± 11.2 µM | – |
| C=C(C)[C@@H]1CC[C@]2(C)[C@H](C(=O)C=C3[C@@H]4C[C@@](C)(C(=O)OCc5ccccc5)CC[C@]4(C)CC[C@]32C)[C@@]1(C)CCC(=O)NCCC [Compound 16, 3-propylcarbamoyl-11-oxo-18β-3,4-seco-olean-4(23),12-dien 30-benzyl ester] | 49.4 ± 11.5 µM | – |
| C=C(C)[C@@H]1CC[C@]2(C)[C@H](C(=O)C=C3[C@@H]4C[C@@](C)(C(=O)OCc5ccccc5)CC[C@]4(C)CC[C@]32C)[C@@]1(C)CCC(=O)NC(C)C [Compound 17, 3-isopropylcarbamoyl-11-oxo-18β-3,4-seco-olean-4(23), 12-dien 30-benzyl ester] | 30.1 ± 2.41 µM | – |
| CC(C)NC(=O)C1(C)CCC2(C)CCC3(C)C(=CC(=O)C4C5(C)CCC(=O)OC(C)(C)C5CCC43C)C2C1 (stereo not drawn) [Compound 18] | 25.7 ± 1.81 µM | – |
| C=C(C)[C@@H]1CC[C@]2(C)[C@H](C(=O)C=C3[C@@H]4C[C@@](C)(C(=O)NC(C)C)CC[C@]4(C)CC[C@]32C)[C@@]1(C)CCC(=O)O [Compound 19] | 17.5 ± 2.11 µM | – |
| C=C(C)[C@@H]1CC[C@]2(C)[C@H](C(=O)C=C3[C@@H]4C[C@@](C)(C(=O)NC(C)C)CC[C@]4(C)CC[C@]32C)[C@@]1(C)CCC(=O)OC [Compound 20, 30-Isopropylcarbamoyl-11-oxo-18β-3,4-seco-olean-4(23),12-diene 3-methyl ester] | 13.1 ± 5.27 µM | cytotoxic effect applied individually (FIGS. 7, 8) (NTUB1 cells [3]): cytotoxic effects against to cancer cells; synergy with cisplatin (FIGS. 7, 8) (NTUB1 cells [3]): dramatic synergy |
| C=C(C)[C@@H]1CC[C@]2(C)[C@H](C(=O)C=C3[C@@H]4C[C@@](C)(C(=O)NC(C)C)CC[C@]4(C)CC[C@]32C)[C@@]1(C)CCC(=O)OC(C)C [Compound 22, 30-isopropyl carbamoyl-11-oxo-18β-3,4-seco-olean-4(23),12-dien 3-isopropyl ester] | 29.2 ± 26.6 µM | – |
| C=C(C)[C@@H]1CC[C@]2(C)[C@H](C(=O)C=C3[C@@H]4C[C@@](C)(C(=O)NC(C)C)CC[C@]4(C)CC[C@]32C)[C@@]1(C)CCC(=O)NCCC [Compound 24, 30-isopropyl carbamoyl-11-oxo-18β-3,4-seco-olean-4(23), 12-dien 3-propyl carbamate] | > 50 µM | – |
| CC1(C(=O)Nc2ccccc2)CCC2(C)CCC3(C)C(=CC(=O)C4C5(C)CCC(=O)OC(C)(C)C5CCC43C)C2C1 (stereo not drawn) [Compound 26] | 16 ± 5.3 µM | – |
| C=C(C)[C@@H]1CC[C@]2(C)[C@H](C(=O)C=C3[C@@H]4C[C@@](C)(C(=O)Nc5ccccc5)CC[C@]4(C)CC[C@]32C)[C@@]1(C)CCC(=O)O [Compound 27] | 3.31 ± 0.61 µM | cytotoxic effect against cancer cell [2]: significantly suppress the growth of cancer cells with a lower concentrate |
| OO [Compound H2O2, H2O2, reference compound] | – | G1 (NTUB1 cells [4]): 27.15; G2/M (NTUB1 cells [4]): 20.18; S (NTUB1 cells [4]): 23.84; Sub-G1 (NTUB1 cells [4]): 9.48 |
